Assays:
[1] = target: memapsin 2 (Homo sapiens, UniProt P56817); assay: Inhibition of memapsin 2 beta-secretase activity (fluorogenic substrate FS-2); format: biochemical; details: memapsin 2, pH 4, 37° C., 20 minutes pre-incubation; read-out: M2Ki
How it was run: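 Memapsin 2 pre-incubated 20 min with compound at pH 4, 37° C, then FS-2 substrate (MCA-SEVNLDAEFK-DNP, APP Swedish cleavage site) added. Rate of fluorescence increase compared with uninhibited controls, fitted to a tight-binding inhibition model.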

[2] = tested on: Aβ production in Chinese hamster ovary cells that over-express human APP695 with the London and Swedish mutations; assay: Cellular Aβ IC50 determination (Aβ40 sandwich ELISA); format: cell-based; details: Cricetulus griseus; cellular Aβ production; read-out: IC50
How it was run: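 CHO cells overexpressing human APP695 with London and Swedish mutations, seeded at 10% confluency, treated with compounds up to about 4 μM final (0.4% DMSO). Secreted Aβ40 measured by sandwich ELISA relative to control and fitted to a 4-parameter IC50 model.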

Chain of memapsin 2 (P56817 46-501): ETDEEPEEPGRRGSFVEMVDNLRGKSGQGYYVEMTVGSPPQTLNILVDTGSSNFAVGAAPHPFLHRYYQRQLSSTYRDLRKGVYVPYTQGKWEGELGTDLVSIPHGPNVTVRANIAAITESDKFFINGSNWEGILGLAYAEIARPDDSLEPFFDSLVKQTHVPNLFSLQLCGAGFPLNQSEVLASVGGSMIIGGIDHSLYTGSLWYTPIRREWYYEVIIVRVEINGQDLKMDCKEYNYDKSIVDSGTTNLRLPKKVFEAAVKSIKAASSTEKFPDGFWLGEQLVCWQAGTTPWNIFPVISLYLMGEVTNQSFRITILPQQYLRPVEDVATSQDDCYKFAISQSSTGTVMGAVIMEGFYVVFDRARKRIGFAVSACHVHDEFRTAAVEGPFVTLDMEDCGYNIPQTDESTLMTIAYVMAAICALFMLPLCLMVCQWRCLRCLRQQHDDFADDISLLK

Cc1csc(CN(C)C(=O)c2cccc(C(=O)N[C@@H](Cc3ccccc3)[C@H](O)CNCc3cc(NS(C)(=O)=O)cc(C(C)C)c3)c2)n1 [Compound 119, N1-((2S,3R)-3-hydroxy-4-(3-isopropyl-5-(methylsulfonamido)benzylamino)-1-phenylbutan-2-yl)-N3-methyl-N3-((4-methylthiazol-2-yl)methyl)isophthalamide]
Ki [1]: < 0.3 µM | IC50 [2]: < 1 µM

COc1cccc(CNC[C@@H](O)[C@H](Cc2ccccc2)NC(=O)c2cc(CN=[N+]=[N-])cc(C(=O)N(C)Cc3nc(C)cs3)c2)c1 [Compound 121, 5-(azidomethyl)-N1-((2S,3R)-3-hydroxy-4-(3-methoxybenzylamino)-1-phenylbutan-2-yl)-N3-methyl-N3-((4-methylthiazol-2-yl)methyl)isophthalamide]
Ki [1]: < 0.3 µM | IC50 [2]: < 1 µM

COCc1cc(C(=O)N[C@@H](Cc2ccccc2)[C@H](O)CNCc2cccc(OC)c2)cc(C(=O)N(C)Cc2nc(C)cs2)c1 [Compound 122, N1-((2S,3R)-3-hydroxy-4-(3-methoxybenzylamino)-1-phenylbutan-2-yl)-5-(methoxymethyl)-N3-methyl-N3-((4-methylthiazol-2-yl)methyl)isophthalamide]
Ki [1]: < 0.3 µM | IC50 [2]: < 1 µM

CC(=O)c1cccc(CNC[C@@H](O)[C@H](Cc2ccccc2)NC(=O)c2cccc(C(=O)N(C)Cc3nc(C)cs3)c2)c1 [Compound 124, N1-((2S,3R)-4-(3-acetylbenzylamino)-3-hydroxy-1-phenylbutan-2-yl)-N3-methyl-N3-((4-methylthiazol-2-yl)methyl)isophthalamide]
Ki [1]: < 0.3 µM | IC50 [2]: < 1 µM

Cc1csc(CN(C)C(=O)c2cccc(C(=O)N[C@@H](Cc3ccccc3)[C@H](O)CNCc3cc(O)cc(C(C)C)c3)c2)n1 [Compound 125, N1-((2S,3R)-3-hydroxy-4-(3-hydroxy-5-isopropylbenzylamino)-1-phenylbutan-2-yl)-N3-methyl-N3-((4-methylthiazol-2-yl)methyl)isophthalamide]
Ki [1]: < 0.3 µM | IC50 [2]: < 1 µM

CC(=O)c1cccc(CNC[C@@H](O)[C@H](Cc2ccccc2)NC(=O)c2cc(C(=O)N[C@H](C)c3ccccc3)cc(N(C)S(C)(=O)=O)c2)c1 [Compound 126, N1-((2S,3R)-4-(3-acetylbenzylamino)-3-hydroxy-1-phenylbutan-2-yl)-5-(N-methylmethylsulfonamido)-N3-((R)-1-phenylethyl)isophthalamide]
Ki [1]: < 0.3 µM | IC50 [2]: < 1 µM

Cc1csc(CN(C)C(=O)c2cccc(C(=O)N[C@@H](Cc3ccccc3)[C@H](O)CNCc3cccc(N(C)C)c3)c2)n1 [Compound 129, N1-((2S,3R)-4-(3-(dimethylamino)benzylamino)-3-hydroxy-1-phenylbutan-2-yl)-N3-methyl-N3-((4-methylthiazol-2-yl)methyl)isophthalamide]
Ki [1]: < 0.3 µM | IC50 [2]: < 1 µM

Cc1csc(CN(C)C(=O)c2cccc(C(=O)N[C@@H](Cc3ccccc3)[C@H](O)CNCc3cc(C(C)C)cc(N(C)C(=O)OCc4ccccc4)c3)c2)n1 [Compound 130, benzyl 3-(((2R,3S)-2-hydroxy-3-(3-(methyl((4-methylthiazol-2-yl)methyl)carbamoyl)benzamido)-4-phenylbutylamino)methyl)-5-isopropylphenyl(methyl)carbamate]
Ki [1]: 0.301 to 0.5 µM | IC50 [2]: > 5 µM

CNc1cc(CNC[C@@H](O)[C@H](Cc2ccccc2)NC(=O)c2cccc(C(=O)N(C)Cc3nc(C)cs3)c2)cc(C(C)C)c1 [Compound 133, N1-((2S,3R)-3-hydroxy-4-(3-isopropyl-5-(methylamino)benzylamino)-1-phenylbutan-2-yl)-N3-methyl-N3-((4-methylthiazol-2-yl)methyl)isophthalamide]
Ki [1]: < 0.3 µM | IC50 [2]: < 1 µM

COC(=O)c1cc(CNC[C@@H](O)[C@H](Cc2ccccc2)NC(=O)c2cccc(C(=O)N(C)Cc3nc(C)cs3)c2)cc(N(C)S(C)(=O)=O)c1 [Compound 134, methyl 3-(((2R,3S)-2-hydroxy-3-(3-(methyl((4-methylthiazol-2-yl)methyl)carbamoyl)benzamido)-4-phenylbutylamino)methyl)-5-(N-methylmethylsulfonamido)benzoate]
Ki [1]: < 0.3 µM | IC50 [2]: 1 to 5 µM

Cc1csc(CN(C)C(=O)c2cccc(C(=O)N[C@@H](Cc3ccccc3)[C@H](O)CNCc3cccc(C#N)c3)c2)n1 [Compound 137, N1-((2S,3R)-4-(3-cyanobenzylamino)-3-hydroxy-1-phenylbutan-2-yl)-N3-methyl-N3-((4-methylthiazol-2-yl)methyl)isophthalamide]
Ki [1]: < 0.3 µM | IC50 [2]: < 1 µM

Cc1csc(CN(C)C(=O)c2cccc(C(=O)N[C@@H](Cc3ccccc3)[C@H](O)CNCc3cc(C(=O)O)cc(N(C)S(C)(=O)=O)c3)c2)n1 [Compound 139, 3-(((2R,3S)-2-hydroxy-3-(3-(methyl((4-methylthiazol-2-yl)methyl)carbamoyl)benzamido)-4-phenylbutylamino)methyl)-5-(N-methylmethylsulfonamido)benzoic acid]
Ki [1]: < 0.3 µM | IC50 [2]: < 1 µM

COc1cccc(CNC[C@@H](O)[C@H](Cc2ccccc2)NC(=O)c2cc(C(=O)N(C)Cc3nc(C)cs3)cc(-c3ccccc3C#N)c2)c1 [Compound 140, 2′-cyano-N3-((2S,3R)-3-hydroxy-4-(3-methoxybenzylamino)-1-phenylbutan-2-yl)-N5-methyl-N5-((4-methylthiazol-2-yl)methyl)biphenyl-3,5-dicarboxamide]
Ki [1]: < 0.3 µM | IC50 [2]: < 1 µM

COC(=O)c1cccc(CNC[C@@H](O)[C@H](Cc2ccccc2)NC(=O)c2cccc(C(=O)N(C)Cc3nc(C)cs3)c2)c1 [Compound 141, methyl 3-(((2R,3S)-2-hydroxy-3-(3-(methyl((4-methylthiazol-2-yl)methyl)carbamoyl)benzamido)-4-phenylbutylamino)methyl)benzoate]
Ki [1]: 0.301 to 0.5 µM | IC50 [2]: < 1 µM

C[C@@H](NC(=O)c1cc(C(=O)N[C@@H](Cc2ccccc2)[C@H](O)CNCc2cccc(C(F)F)c2)cc(N(C)S(C)(=O)=O)c1)c1ccccc1 [Compound 142, N1-((2S,3R)-4-(3-(difluoromethyl)benzylamino)-3-hydroxy-1-phenylbutan-2-yl)-5-(N-methylmethylsulfonamido)-N3-((R)-1-phenylethyl)isophthalamide]
Ki [1]: < 0.3 µM | IC50 [2]: < 1 µM

Cc1csc(CN(C)C(=O)c2cccc(C(=O)N[C@@H](Cc3ccccc3)[C@H](O)CNCc3cccc(C(F)F)c3)c2)n1 [Compound 143, N1-((2S,3R)-4-(3-(difluoromethyl)benzylamino)-3-hydroxy-1-phenylbutan-2-yl)-N3-methyl-N3-((4-methylthiazol-2-yl)methyl)isophthalamide]
Ki [1]: < 0.3 µM | IC50 [2]: < 1 µM

C[C@@H](NC(=O)c1cc(C(=O)N[C@@H](Cc2ccccc2)[C@H](O)CNCc2cccc(C(C)(F)F)c2)cc(N(C)S(C)(=O)=O)c1)c1ccccc1 [Compound 144, N1-((2S,3R)-4-(3-(1,1-difluoroethyl)benzylamino)-3-hydroxy-1-phenylbutan-2-yl)-5-(N-methylmethylsulfonamido)-N3-((R)-1-phenylethyl)isophthalamide]
Ki [1]: < 0.3 µM | IC50 [2]: < 1 µM

Cc1csc(CN(C)C(=O)c2cccc(C(=O)N[C@@H](Cc3ccccc3)[C@H](O)CNCc3cccc(C(C)(F)F)c3)c2)n1 [Compound 145, N1-((2S,3R)-4-(3-(1,1-difluoroethyl)benzylamino)-3-hydroxy-1-phenylbutan-2-yl)-N3-methyl-N3-((4-methylthiazol-2-yl)methyl)isophthalamide]
Ki [1]: < 0.3 µM | IC50 [2]: < 1 µM

Cc1csc(CN(C)C(=O)c2cccc(C(=O)N[C@@H](Cc3ccccc3)[C@H](O)CNCc3cc(C(C)C)cc(N(C)S(C)(=O)=O)c3)c2)n1 [Compound 146, N1-((2S,3R)-3-hydroxy-4-(3-isopropyl-5-(N-methylmethylsulfonamido)benzylamino)-1-phenylbutan-2-yl)-N3-methyl-N3-((4-methylthiazol-2-yl)methyl)isophthalamide]
Ki [1]: < 0.3 µM | IC50 [2]: < 1 µM

Cc1csc(CN(C)C(=O)c2cccc(C(=O)N[C@@H](Cc3ccccc3)[C@H](O)CNC(C)c3cncc(C(C)C)c3)c2)n1 (stereo partly drawn) [Compound 148, N1-((2S,3R)-3-hydroxy-4-(1-(5-isopropylpyridin-3-yl)ethylamino)-1-phenylbutan-2-yl)-N3-methyl-N3-((4-methylthiazol-2-yl)methyl)isophthalamide]
Ki [1]: < 0.3 µM | IC50 [2]: < 1 µM

C[C@@H](NC(=O)c1cc(C(=O)N[C@@H](Cc2ccccc2)[C@H](O)CNCc2cccc(C#N)c2)cc(N(C)S(C)(=O)=O)c1)c1ccccc1 [Compound 149, N1-((2S,3R)-4-(3-cyanobenzylamino)-3-hydroxy-1-phenylbutan-2-yl)-5-(N-methylmethylsulfonamido)-N3-((R)-1-phenylethyl)isophthalamide]
Ki [1]: < 0.3 µM | IC50 [2]: < 1 µM

Cc1csc(CN(C)C(=O)c2cccc(C(=O)N[C@@H](Cc3ccccc3)[C@H](O)CNCc3cc(C(C)C)cc(S(C)(=O)=O)c3)c2)n1 [Compound 150, N1-((2S,3R)-3-hydroxy-4-(3-isopropyl-5-(methylsulfonyl)benzylamino)-1-phenylbutan-2-yl)-N3-methyl-N3-((4-methylthiazol-2-yl)methyl)isophthalamide]
Ki [1]: < 0.3 µM | IC50 [2]: < 1 µM

Cc1csc(CN(C)C(=O)c2cc(C(=O)N[C@@H](Cc3ccccc3)[C@H](O)CNCc3cncc(C(C)C)c3)cc(-c3ccccc3C#N)c2)n1 [Compound 154, 2′-cyano-N3-((2S,3R)-3-hydroxy-4-((5-isopropylpyridin-3-yl)methylamino)-1-phenylbutan-2-yl)-N5-methyl-N5-((4-methylthiazol-2-yl)methyl)biphenyl-3,5-dicarboxamide]
Ki [1]: < 0.3 µM | IC50 [2]: < 1 µM
